According to US7820834B2, “Triptolide 5,6-derivatives as immunomodulators and anticancer agents” (Pharmagenesis, Inc., priority 2004, dated 2010):

Key:
Type in all cases: cell-based
[1] = system: Jurkat human T lymphoma cell line; test: Annexin V Apoptosis Assay; settings: 24 h, dose-dependent, FIG. 1
Description: Test samples were diluted to 1 mM in complete tissue culture medium (RPMI 1640 medium plus 5% heat-inactivated fetal calf serum, 1% HEPES, 1% pen/strep, 1% glutamine). Aliquots were placed in microculture plates and serial dilutions were prepared so that the final concentration would encompass the range of 2 to 6,000 nM with half-log increments. Cells from an exponentially expanding culture of the Jurkat human T lymphoma cell line (#TIB-152 obtained from American Type Culture Collection, Manassas, Va.) were harvested, washed once by centrifugation, re-suspended in complete tissue culture medium, and further diluted to a concentration of 1×10^6 cells/ml. A volume of 100 μl of the cells (1×10^5 cells) was added to wells containing 100 μl of the diluted compounds, and the plates were incubated at 37° C. in a 5% CO2 incubator.
After 24 hours, the plates were centrifuged to pellet the cells, and the cells were washed twice with 2% heat-inactivated fetal calf serum in PBS. […] The contents of the wells were individually transferred into test tubes, and apoptosis was analyzed using a FACSCalibur flow cytometer (BD Immunocytometry Systems, San Jose, Calif.). Cells positive for Annexin V binding were considered to be apoptotic, and the data were calculated as percent apoptotic cells. […]

[2] = system: human T cell lymphoma (Jurkat) cells; test: Cytotoxicity (MTT) Assay; settings: FIG. 2
Description: Test compounds were dissolved in DMSO at a concentration of 20 mM. Further dilutions were done in RPMI1640 medium (GIBCO, Rockville, Md.) supplemented with 10% Fetal Calf Serum (HyClone Laboratories, Logan, Utah). Invention compound 14-acetyl-5,6-didehydrotriptolide (designated PG746) was tested with and without a previous 16-hr incubation in human serum. Such incubation is expected to substantially convert the 14-acetyl group of PG746 to a 14-hydroxy group.
Cytotoxicity of the compounds was determined in a standard MTT assay using Cell Proliferation Kit I (#1 465 007, Roche Diagnostics, Mannheim, Germany). Accordingly, human T cell lymphoma (Jurkat) cells (4×10^5 per well) were cultured for 24 h, in 96-well tissue culture plates, in the presence of serial three-fold dilutions of test compounds or medium containing the same concentration of DMSO as in the test samples at each dilution point. The cultures were then supplemented with 10 μl/well MTT reagent for 4 h and then with 0.1 ml/well solubilizing reagent for an additional 16 h. Optical density at 570 nm was measured on a ThermoScan microplate reader (Molecular Devices, Menlo Park, Calif.).
The data is presented as OD570 values versus concentration of the compounds. The results for invention compound 14-acetyl-5,6-didehydrotriptolide (designated PG746) and triptolide (designated PG490) are given in FIG. 2.

[3] = system: IL-2 production in Jurkat cells; test: IL-2 Inhibition Assay; settings: without previous incubation in human serum, FIG. 4
Description: Test compounds were diluted to 1 mM in complete tissue culture medium. Aliquots were placed in microculture plates coated with anti-CD3 antibody (used to stimulate the production of IL-2 by Jurkat cells), and serial dilutions were prepared so that the final concentration would encompass the range of 0.001 to 10,000 nM in log increments.
Invention compound 14-acetyl-5,6-didehydrotriptolide (designated PG746) was tested with and without a previous 16-hr incubation in human serum. Such incubation is expected to substantially convert the 14-acetyl group of PG746 to a 14-hydroxy group.
Cells from an exponentially expanding culture of Jurkat human T cell line (#TIB-152 obtained from American Type Culture Collection, Manassas, Va.) were harvested, washed once by centrifugation, re-suspended in complete tissue culture medium, and diluted to a concentration of 10^7 cells/ml. A volume of 50 μl of Jurkat cells was added to wells containing 100 μl of the diluted compounds, and the cells were stimulated with 50 ng/ml PMA and […] PHA. The plates were incubated at 37° C. in a 5% CO2 incubator. […] The stored supernatants were analyzed for human IL-2 concentration using the Luminex 100 (Luminex Corporation, Austin, Tex.), Luminex microspheres coupled with anti-IL-2 capture antibody, and fluorochrome-coupled anti-IL-2 detection antibody. The data were expressed as pg/ml of IL-2. […]

| SMILES | induction of apoptosis (Annexin V positive cells) [1] | concentrations at which the compound was clearly cytotoxic to Jurkat cells (MTT) ([2]; after incubation for 16 hours with human serum) [nM] | cytotoxicity (MTT), activity relative to the medium control ([2]; in assay medium, without previous incubation in human serum) | inhibition of IL-2 production, activity relative to the medium control [3] |
| --- | --- | --- | --- | --- |
| CC(C)[C@]12O[C@H]1[C@@H]1O[C@]13[C@]1(O[C@H]1C[C@@]1(O)C4=C(CC[C@]31C)C(=O)OC4)[C@@H]2O [PG701, 5-α-hydroxytriptolide] | induced apoptosis in Jurkat cells |  |  |  |
| CC(=O)O[C@@H]1[C@@]2(C(C)C)O[C@H]2[C@@H]2O[C@]23[C@]12O[C@H]2C=C1C2=C(CC[C@@]13C)C(=O)OC2 [PG746, 14-acetyl-5,6-didehydrotriptolide] |  | ≥ 1000 | no significant activity relative to the medium control | no significant activity relative to the medium control |
